Columns and labels:
[1] = Cytotoxicity against human […] cells after 96 hrs by MTS assay; assay type: cell-based
[2] = tested on: Hepatitis C virus; assay: Antiviral activity against HCV infected in human HuH7 cells by cell-based replicon assay; assay type: functional, Hepacivirus hominis, Huh-7
[3] = Cytotoxicity against human HuH7 cells after 96 hrs by MTS assay; assay type: cell-based, Huh-7
[4] = Cytotoxicity against human HepG2 cells after 96 hrs by MTS assay; assay type: cell-based
[5] = Cytotoxicity against human CEM cells after 96 hrs by MTS assay; assay type: cell-based; conditions: CEM (CCRF-CEM) cells
[6] = tested on: Hepatitis C virus; assay: Antiviral activity against HCV harboring NS5B polymerase S282T mutant infected in human HuH7 cells by cell-based replicon assay; assay type: functional, Hepacivirus hominis, Huh-7
[7] = Half life in simulated gastrointestinal fluid; assay type: ADME
[8] = Half life in simulated intestinal fluid; assay type: ADME
[9] = tested on: HepG2; assay: Cytotoxicity against human HepG2 cells assessed as mitochondrial rDNA level up to 100 uM after 14 days by RT-PCR analysis; assay type: cell-based; conditions: hepg2, 336 h
[10] = tested on: CCRF-CEM; assay: Cytotoxicity against human CEM cells assessed as mitochondrial COX2 DNA level up to 100 uM after 14 days by RT-PCR analysis; assay type: cell-based; conditions: 336 h
[11] = tested on: CCRF-CEM; assay: Cytotoxicity against human CEM cells assessed as mitochondrial rDNA level up to 100 uM after 14 days by RT-PCR analysis; assay type: cell-based; conditions: 336 h
[12] = tested on: HepG2; assay: Cytotoxicity against human HepG2 cells assessed as mitochondrial COX2 DNA level up to 100 uM after 14 days by RT-PCR analysis; assay type: cell-based; conditions: hepg2, 336 h
[13] = Half life in human plasma; assay type: ADME, cell-free
[14] = Half life in human liver S9 fraction; assay type: ADME, subcellular
[15] = tested on: Huh-7; assay: Increase of cellular triphosphate level in human HuH7 cells at 100 uM after 48 hrs by HPLC analysis; assay type: functional
[16] = tested on: Hepatocyte; assay: Increase of cellular triphosphate level in human primary hepatocytes cells at 100 uM after 24 hrs by HPLC analysis; assay type: functional

Row | SMILES | CC50 at 96 h [1] [µM] | EC90 ([2]; Hepatitis C virus, Huh-7) [nM] | CC50 at 96 h [3] [µM] | CC50 at 96 h [4] [µM] | CC50 at 96 h [5] [µM] | other results
1 | CC(C)OC(=O)[C@H](C)NP(=O)(OC[C@H]1O[C@@H](n2cnc3c(N4CCC4)nc(N)nc32)[C@](C)(F)[C@@H]1O)Oc1ccccc1 (stereo not given in full) | 74 | 19 | 53 | 100 | 74 | –
2 | CCOC(=O)[C@H](C)NP(=O)(OC[C@H]1O[C@@H](n2cnc3c(OC)nc(N)nc32)[C@](C)(F)[C@@H]1O)Oc1ccccc1 (stereo not given in full) | 65 | 7.4 | > 100 | 62 | 55 | EC90 ([6]; Hepatitis C virus, Huh-7): 11 nM
3 | CCCOc1nc(N)nc2c1ncn2[C@@H]1O[C@H](COP(=O)(N[C@@H](C)C(=O)OC)Oc2ccccc2)[C@@H](O)[C@@]1(C)F (stereo not given in full) | 39 | 14.6 | 39 | 45 | 17 | –
4 | CCOC(=O)[C@H](C)NP(=O)(OC[C@H]1O[C@@H](n2cnc3c(OCCF)nc(N)nc32)[C@](C)(F)[C@@H]1O)Oc1ccccc1 (stereo not given in full) | – | 27 | – | – | – | –
5 | CCOC(=O)[C@H](C)NP(=O)(OC[C@H]1O[C@@H](n2cnc3c(O)nc(N)nc32)[C@](C)(F)[C@@H]1O)Oc1ccccc1 (stereo not given in full) | > 100 | 2380 | > 100 | > 100 | > 100 | –
6 | COC(=O)[C@H](C)NP(=O)(OC[C@H]1O[C@@H](n2cnc3c(NC4CC4)nc(N)nc32)[C@](C)(F)[C@@H]1O)Oc1ccccc1 (stereo not given in full) | > 100 | 8.2 | > 100 | > 100 | 34 | –
7 | CCOC(=O)[C@H](C)NP(=O)(OC[C@H]1O[C@@H](n2cnc3c(OCCOC)nc(N)nc32)[C@](C)(F)[C@@H]1O)Oc1ccccc1 (stereo not given in full) | – | 20 | – | – | – | –
8 | COC(=O)[C@H](C)NP(=O)(OC[C@H]1O[C@@H](n2cnc3c(OC)nc(N)nc32)[C@](C)(F)[C@@H]1O)Oc1ccccc1 (stereo not given in full) | > 100 | 8.1 | > 100 | 71 | 20 | –
9 | CCCOc1nc(N)nc2c1ncn2[C@@H]1O[C@H](COP(=O)(N[C@@H](C)C(=O)OC(C)C)Oc2ccccc2)[C@@H](O)[C@@]1(C)F (stereo not given in full) | > 100 | 33 | 49 | > 100 | 44 | –
10 | CC(C)OC(=O)[C@H](C)NP(=O)(OC[C@H]1O[C@@H](n2cnc3c(O)nc(N)nc32)[C@](C)(F)[C@@H]1O)Oc1ccccc1 (stereo not given in full) | > 100 | 750 | > 100 | > 100 | > 100 | EC90 ([6]; Hepatitis C virus, Huh-7): 610 nM
11 | CCOC(=O)[C@H](C)NP(=O)(OC[C@H]1O[C@@H](n2cnc3c(N4CCC4)nc(N)nc32)[C@](C)(F)[C@@H]1O)Oc1ccccc1 (stereo not given in full) | 84 | 7 | 84 | 75 | 39 | –
12 | C[C@H](NP(=O)(OC[C@H]1O[C@@H](n2cnc3c(O)nc(N)nc32)[C@](C)(F)[C@@H]1O)Oc1ccccc1)C(=O)OC1CCCCC1 (stereo not given in full) | > 100 | 446 | > 100 | > 100 | > 100 | –
13 | CCOC(=O)[C@H](C)NP(=O)(OC[C@H]1O[C@@H](n2cnc3c(OCC)nc(N)nc32)[C@](C)(F)[C@@H]1O)Oc1ccccc1 (stereo not given in full) | 68 | 10 | 47 | 61 | 37 | –
14 | COC(=O)[C@H](C)NP(=O)(OC[C@H]1O[C@@H](n2cnc3c(N4CCC4)nc(N)nc32)[C@](C)(F)[C@@H]1O)Oc1ccccc1 (stereo not given in full) | > 100 | 90 | > 100 | > 100 | 75 | half-life [7]: > 1200 min; half-life [8]: > 1200 min; Activity [9]: Non-toxic; EC90 ([6]; Hepatitis C virus, Huh-7): 40 nM; Activity [10]: Non-toxic; Activity [11]: Non-toxic; Activity [12]: Non-toxic; half-life [13]: 696 min; half-life [14]: 24 min; Activity [15]: 0.16 mM; Activity [16]: 0.05 mM
15 | COc1nc(N)nc2c1ncn2[C@@H]1O[C@H](CO[P@](=O)(N[C@@H](C)C(=O)OC(C)C)Oc2ccccc2)[C@@H](O)[C@@]1(C)F | – | 27 | – | – | – | EC90 ([6]; Hepatitis C virus, Huh-7): 38 nM; Activity [15]: 0.07 mM; Activity [16]: 0.14 mM
16 | C[C@H](NP(=O)(OC[C@H]1O[C@@H](n2cnc3c(O)nc(N)nc32)[C@](C)(F)[C@@H]1O)Oc1ccccc1)C(=O)OC1CCCC1 (stereo not given in full) | > 100 | 180 | > 100 | > 100 | > 100 | half-life [7]: 900 min; half-life [8]: > 1200 min; Activity [9]: Non-toxic; EC90 ([6]; Hepatitis C virus, Huh-7): 120 nM; Activity [10]: Non-toxic; Activity [11]: Non-toxic; Activity [12]: Non-toxic; half-life [13]: > 1440 min; half-life [14]: 12 min; Activity [15]: 0.06 mM; Activity [16]: 0.04 mM
17 | COc1nc(N)nc2c1ncn2[C@@H]1O[C@H](COP(=O)(N[C@@H](C)C(=O)OC(C)C)Oc2ccccc2)[C@@H](O)[C@@]1(C)F (stereo in doubt; 23) | > 100 | – | > 100 | 62 | > 100 | half-life [7]: 840 min; half-life [8]: > 1200 min; Activity [9]: Non-toxic; EC90 [2]: 20 nM; EC90 [6]: 24 nM; Activity [10]: Non-toxic; Activity [11]: Non-toxic; Activity [12]: Non-toxic; half-life [13]: > 1440 min; half-life [14]: 12 min; Activity [15]: 0.12 mM; Activity [16]: 0.12 mM
18 | CCOC(=O)[C@H](C)NP(=O)(OC[C@H]1O[C@@H](n2cnc3c(NC4CCCC4)nc(N)nc32)[C@](C)(F)[C@@H]1O)Oc1ccccc1 (stereo not given in full) | – | 26 | – | – | – | –
19 | CCOC(=O)[C@H](C)NP(=O)(OC[C@H]1O[C@@H](n2cnc3c(NC4CC4)nc(N)nc32)[C@](C)(F)[C@@H]1O)Oc1ccccc1 (stereo not given in full) | > 100 | 9.8 | > 100 | > 100 | 45 | –
20 | COc1nc(N)nc2c1ncn2[C@@H]1O[C@H](COP(=O)(N[C@@H](C)C(=O)OC(C)C)Oc2ccccc2)[C@@H](O)[C@@]1(C)F (stereo in doubt; 23b) | – | – | – | – | – | EC90 [2]: 8 nM; EC90 [6]: 11 nM; Activity [15]: 0.17 mM; Activity [16]: 0.44 mM
21 | CC(C)OC(=O)[C@H](C)NP(=O)(OC[C@H]1O[C@@H](n2cnc3c(NC4CC4)nc(N)nc32)[C@](C)(F)[C@@H]1O)Oc1ccccc1 (stereo not given in full) | 98 | 8.8 | 96 | > 100 | > 100 | –
22 | CCOc1nc(N)nc2c1ncn2[C@@H]1O[C@H](COP(=O)(N[C@@H](C)C(=O)OC(C)C)Oc2ccccc2)[C@@H](O)[C@@]1(C)F (stereo not given in full) | > 100 | 20 | 59 | > 100 | 93 | –
23 | CCCOc1nc(N)nc2c1ncn2[C@@H]1O[C@H](COP(=O)(N[C@@H](C)C(=O)OCC)Oc2ccccc2)[C@@H](O)[C@@]1(C)F (stereo not given in full) | – | 13 | – | – | – | –
24 | CCOc1nc(N)nc2c1ncn2[C@@H]1O[C@H](COP(=O)(N[C@@H](C)C(=O)OC)Oc2ccccc2)[C@@H](O)[C@@]1(C)F (stereo not given in full) | > 100 | 16 | > 100 | > 100 | 74 | EC90 ([6]; Hepatitis C virus, Huh-7): 16 nM
25 | CCOC(=O)[C@H](C)NP(=O)(OC[C@H]1O[C@@H](n2cnc3c(NC4CCC4)nc(N)nc32)[C@](C)(F)[C@@H]1O)Oc1ccccc1 (stereo not given in full) | – | 24 | – | – | – | –
26 | CCOC(=O)[C@H](C)NP(=O)(OC[C@H]1O[C@@H](n2cnc3c(SCC)nc(N)nc32)[C@](C)(F)[C@@H]1O)Oc1ccccc1 (stereo not given in full) | – | 47 | – | – | – | –
